Results reported in article PMC7055314, “Ratiometric population sensing by a pump-probe signaling system in Bacillus subtilis” (Nature Communications, 2020).
Entries after “also recorded” stand apart in the source; their conditions may differ. Where no end group is shown, it is not given here.

B1: PhrA (peptide)
peptide: ARNQT
notes: PhrA, the mature linear pentapeptide derived from the phrA gene product of Bacillus subtilis; also called PhrA pentapeptide; ARNQT; source: synthetic peptide (Peptides and Elephant, purity >95%)

Columns and labels:
[1] = test system: reporter cells BIB625 (RapA-Spo0F FRET); experiment: Bioassay of supernatants: PhrA depletion from medium measured with fresh reporter cells; format: cell-based, Bacillus subtilis; conditions: 10 nM PhrA, within a few minutes
Procedure: Induction of FRET reporters: Reporter cells were inoculated from a single colony into 5 ml of LB medium with antibiotics and incubated on a rotary shaker (Infors HT Multitron) at 180 rpm and 37 °C for 7 h. Cells were resuspended at OD600 nm = 0.003 in 5 ml of S7_50 medium and incubated for 16 h overnight. Expression of the fusion proteins was induced by resuspending the reporter cells at an OD600 nm =0.04 in 10 ml of fresh S7_50 supplemented with 100 µM IPTG in a 100-ml flask. When applicable, protein expression from a xylose-inducible promoter was induced by adding xylose at a final concentration of 1% (w/v). Cells were grown to a final OD600 nm ~1.6.
Bioassay and supernatant analysis: The supernatants were collected after centrifugation of stimulated cells. […] The supernatants were then filtered through a 0.2-µm PES membrane, and analyzed as described above with the following modification. To increase the sensitivity of the bioassay, the volume of analyzed supernatant and the incubation time were increased to VS = 1950 µl and tB = 20 min + 1 min, respectively. […]
The FRET efficiency was determined using the formula:5 FRET=CFPpost−CFPpre/CFPpost⋅100%, where CFPpre and CFPpost denote the emission levels before and after acceptor photobleaching, respectively. […] CFPpre is then evaluated at the end of the bleaching period by extrapolating the linear fit accordingly (see Fig. 2b). […]

[2] = PhrA stability in cell-free supernatant (Supplementary Fig. 5B); format: in vitro ADME
Procedure: Bioassay and supernatant analysis: The supernatants were collected after centrifugation of stimulated cells. Aliquots (VS = 450 µl) of the cell-free supernatants were mixed with 50 µl of a 10× suspension of fresh unstimulated reporter cells, for tB = 5 min + 1 min (time for incubation plus centrifugation) at room temperature and then processed as described above. To detect extracellular PhrA in S7_50 cultures, wild-type cells (BIB224) were grown for 5 h to an OD600 nn ~ 1.6 and pelleted by centrifugation. The supernatants were then filtered through a 0.2-µm PES membrane, and analyzed as described above with the following modification. To increase the sensitivity of the bioassay, the volume of analyzed supernatant and the incubation time were increased to VS = 1950 µl and tB = 20 min + 1 min, respectively.

CFP-RapA = target: T1, CFP-RapA (Bacillus subtilis 168, UniProt Q00828 1-378); experiment: FRET or BRET; loss of CFP-RapA/Spo0F-YFP FRET in B. subtilis reporter cells against PhrA; EC50 is the intracellular PhrA concentration of the half-maximal response, inferred by fitting all data of Figs. 4 and 5 to the pump-probe model (Hill function); conditions: one partner purified
T1 construct: RapA, Rap-family RRNPP-type receptor (response regulator aspartate phosphatase A) of Bacillus subtilis; rapA amplified from B. subtilis 168 genomic DNA; ecfp(Bs) is joined to the N-terminus of RapA by a GSGGV linker; also called RapA receptor; RapA-CFP; source: B. subtilis reporter strain BIB625 (ΔrapA-phrA Δspo0F), IPTG-induced from the amyE locus, in living cells; not shown: eCFP(Bs), …
T1 sequence (looked up): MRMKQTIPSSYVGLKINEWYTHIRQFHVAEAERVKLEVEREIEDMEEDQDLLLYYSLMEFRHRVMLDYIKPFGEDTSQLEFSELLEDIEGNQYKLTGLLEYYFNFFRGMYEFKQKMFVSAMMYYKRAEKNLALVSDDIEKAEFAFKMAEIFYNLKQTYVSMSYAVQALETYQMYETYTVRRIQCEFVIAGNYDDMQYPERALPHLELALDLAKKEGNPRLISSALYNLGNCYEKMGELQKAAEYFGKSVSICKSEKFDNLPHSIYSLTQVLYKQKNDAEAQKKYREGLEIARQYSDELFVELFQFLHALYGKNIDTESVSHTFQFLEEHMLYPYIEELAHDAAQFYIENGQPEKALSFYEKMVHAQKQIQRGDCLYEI

Row | Molecule | extracellular PhrA level after stimulation [1] | time for which bioassay FRET remained unchanged (stability) ([2]; 10 nM PhrA in cell-free supernatant, room temperature, bioassay read-out, ne = 3) | bioassay FRET during incubation in cell-free supernatant ([2]; 10 nM PhrA in cell-free supernatant, room temperature, up to at least 8 h, ne = 3) | extracellular stability ([2]; 10 nM PhrA, cell-free supernatant) | EC50 (CFP-RapA)
1 | ARNQT [PhrA] | below the detection limit of the bioassay | at least 8 h | ~ 7% | stable in cell-free supernatants; also recorded: stable for hours | –
2 | B1 | – | – | – | – | 38 µM
